Source: patent publication US20240115527A1, “CXCR1/CXCR2 INHIBITORS FOR USE IN TREATING MYELOFIBROSIS” (Icahn School of Medicine at Mount Sinai, priority 2020, published 2024)

How the values were obtained:
Type in all cases: cell-based, human
MF CD34+ cells [1] = assay: Clonal assays of MF CD34+ cells; JAK2V617F allele status of picked hematopoietic colonies; conditions: no ladarixin
Protocol: Individual hematopoietic colonies were randomly picked from clonal assays of CD34^+ cells from 6 MF cases and the JAK2V617F allele status was determined.
IL-8 alone increased the absolute numbers of JAK2V617F+ colonies, and the addition of Ladarixin reduced the numbers of JAK2V617F positive colonies stimulated by IL-8 (Tables 1-3).

[2] = test system: MF CD34+, CD41+ and CD33+ cells; assay: Proliferation and lineage differentiation of MF mononuclear cells cultured with IL-8, flow cytometry; conditions: 50 ng/ml of IL-8, 3 days of incubation, FIG. 4A
Protocol: To evaluate the effects of IL-8 on MF CD34^+ cells proliferation and lineage differentiation, MF mononuclear cells (MNC cells) were cultured with StemSpan™ Serum-Free Expansion Medium (SFEM) containing 20 ng/ml of stem cell factor (SCF), thrombopoietin (TPO), FL-3L and IL-3 with or without 50 ng/ml of IL-8. The cells were harvested after 3 days of incubation. The proportion of hematopoietic cells belonging to specific lineages were determined using flow cytometry.

normal donor CD34+ cells = assay: Proliferation and lineage differentiation of normal donor cells cultured with IL-8, flow cytometry; conditions: incubated with IL-8, FIG. 4A
MF CD34+ cells [3] = assay: Colony forming assay (CFU-GM) of cultured MF CD34+ cells with IL-8
From the text: FIGS. 5A, 5B. 5C, 5D, and 5E illustrate that a CXCR1/CXCR2 inhibitor reverses effects of IL-8 on MF CD34^+ cell colony formation. […] CFU-GM=colony-forming unit-granulocyte-macrophage. FIGS. 5B and 5C illustrate that IL-8 increased CFU-GM colony formation by MF CD34^+ cells in a dose dependent fashion and that the effects of IL-8 were inhibited by treatment with Ladx. FIG. 5B. Normal cells. FIG. 5C. MF cells. […] Con=control. IL-8 concentrations increase from left to right. […] P values were as follows: w/o Ladx: Con vs IL-8—10 ng: 0.159332; Con vs IL-8—20 ng: 0.011976; Con vs IL-8—50 ng: 0.00262; Con vs IL-8—100 ng: 0.00042; w/ 10 μM Ladx: Con vs Ladx: 0.315782; IL-8—10 ng vs plus Ladx: 0.295851; IL-8—20 ng vs plus Ladx: 0.077726; IL-8—50 ng vs plus Ladx: 0.031355; IL-8—100 ng vs plus Ladx: 0.081595.

normal CD34+ cells = assay: Hematopoietic colony formation by normal CD34+ cells with IL-8; conditions: increasing concentrations of IL-8, FIG. 5B
spleen stromal cells = assay: VEGF mRNA expression by spleen stromal cells after IL-8 silencing; conditions: addition of IL-8, FIG. 3C
From the text: FIGS. 3A, 3B, and 3C illustrate that reduction of IL-8 blocks VEGF, which is involved in the development of splenic endothelial cells (EC)/MF HSC niches. FIGS. 3A and 3B illustrate that LCN2 increases IL-8 and CXCL1 protein and mRNA levels in spleen stromal cells. Con: left bars. LCN2: right bars. FIG. 3C illustrates that IL-8 regulates VEGF expression. si=silencing. Ab=antibody. Con=control.
Lipocalin2 (LCN2) is a cytokine produced by MF marrow myeloid cells. Levels of LCN2 are 2-3 fold greater in the circulation of MF patients as compared to PV and ET patients and even higher as compared to healthy controls. […] IL-8 and the related chemokine CXCL1 are pro-angiogenic creating a cascade of cytokines (VEGF) contributing to the development of splenic EC/MF HSC niches. […] The positive impact of IL-8 on VEGF expression was blocked by an IL-8 neutralizing antibody.

Substance: IL-8: pro-inflammatory cytokine; CXCR1 and CXCR2 are its receptors
- number of colonies, Heter (JAK2V617F heterozygous) (MF CD34+ cells [1]; MF4 CD34+ cells, IL-8 20 ng): 171
- number of colonies, Homo (JAK2V617F homozygous) (MF CD34+ cells [1]; MF4 CD34+ cells, IL-8 20 ng): 0
- number of colonies, Wild (JAK2 wild type) (MF CD34+ cells [1]; MF4 CD34+ cells, IL-8 20 ng): 0
- number of colonies, Heter (JAK2V617F heterozygous) (MF CD34+ cells [1]; MF4 CD34+ cells, IL-8 50 ng): 190
- number of colonies, Homo (JAK2V617F homozygous) (MF CD34+ cells [1]; MF4 CD34+ cells, IL-8 50 ng): 0
- number of colonies, Wild (JAK2 wild type) (MF CD34+ cells [1]; MF4 CD34+ cells, IL-8 50 ng): 0
- number of colonies, Heter (JAK2V617F heterozygous) (MF CD34+ cells [1]; MF4 CD34+ cells, IL-8 100 ng): 174
- number of colonies, Homo (JAK2V617F homozygous) (MF CD34+ cells [1]; MF4 CD34+ cells, IL-8 100 ng): 12
- number of colonies, Wild (JAK2 wild type) (MF CD34+ cells [1]; MF4 CD34+ cells, IL-8 100 ng): 12
- number of colonies, Heter (JAK2V617F heterozygous) (MF CD34+ cells [1]; MF5 CD34+ cells, IL-8 10 ng): 0
- number of colonies, Homo (JAK2V617F homozygous) (MF CD34+ cells [1]; MF5 CD34+ cells, IL-8 10 ng): 0
- number of colonies, Wild (JAK2 wild type) (MF CD34+ cells [1]; MF5 CD34+ cells, IL-8 10 ng): 124
- number of colonies, Heter (JAK2V617F heterozygous) (MF CD34+ cells [1]; MF5 CD34+ cells, IL-8 20 ng): 0
- number of colonies, Homo (JAK2V617F homozygous) (MF CD34+ cells [1]; MF5 CD34+ cells, IL-8 20 ng): 0
- number of colonies, Wild (JAK2 wild type) (MF CD34+ cells [1]; MF5 CD34+ cells, IL-8 20 ng): 142
- number of colonies, Heter (JAK2V617F heterozygous) (MF CD34+ cells [1]; MF5 CD34+ cells, IL-8 50 ng): 0
- number of colonies, Homo (JAK2V617F homozygous) (MF CD34+ cells [1]; MF5 CD34+ cells, IL-8 50 ng): 0
- number of colonies, Wild (JAK2 wild type) (MF CD34+ cells [1]; MF5 CD34+ cells, IL-8 50 ng): 115
- number of colonies, Heter (JAK2V617F heterozygous) (MF CD34+ cells [1]; MF5 CD34+ cells, IL-8 100 ng): 0
- number of colonies, Homo (JAK2V617F homozygous) (MF CD34+ cells [1]; MF5 CD34+ cells, IL-8 100 ng): 0
- number of colonies, Wild (JAK2 wild type) (MF CD34+ cells [1]; MF5 CD34+ cells, IL-8 100 ng): 115
- number of colonies, Heter (JAK2V617F heterozygous) (MF CD34+ cells [1]; MF6 CD34+ cells, IL-8 10 ng): 0
- number of colonies, Homo (JAK2V617F homozygous) (MF CD34+ cells [1]; MF6 CD34+ cells, IL-8 10 ng): 0
- number of colonies, Wild (JAK2 wild type) (MF CD34+ cells [1]; MF6 CD34+ cells, IL-8 10 ng): 115
- number of colonies, Heter (JAK2V617F heterozygous) (MF CD34+ cells [1]; MF6 CD34+ cells, IL-8 20 ng): 0
- number of colonies, Homo (JAK2V617F homozygous) (MF CD34+ cells [1]; MF6 CD34+ cells, IL-8 20 ng): 0
- number of colonies, Wild (JAK2 wild type) (MF CD34+ cells [1]; MF6 CD34+ cells, IL-8 20 ng): 131
- number of colonies, Heter (JAK2V617F heterozygous) (MF CD34+ cells [1]; MF6 CD34+ cells, IL-8 50 ng): 8
- number of colonies, Homo (JAK2V617F homozygous) (MF CD34+ cells [1]; MF6 CD34+ cells, IL-8 50 ng): 0
- number of colonies, Wild (JAK2 wild type) (MF CD34+ cells [1]; MF6 CD34+ cells, IL-8 50 ng): 125
- number of colonies, Heter (JAK2V617F heterozygous) (MF CD34+ cells [1]; MF6 CD34+ cells, IL-8 100 ng): 12
- number of colonies, Homo (JAK2V617F homozygous) (MF CD34+ cells [1]; MF6 CD34+ cells, IL-8 100 ng): 0
- number of colonies, Wild (JAK2 wild type) (MF CD34+ cells [1]; MF6 CD34+ cells, IL-8 100 ng): 87
- percentage of MF CD34+, CD41+ and CD33+ cells [2]: increased
- percentage of normal donor CD34+, CD41+ and CD33+ cell populations (normal donor CD34+ cells): decreased
- numbers of MF CFU-GM colonies (MF CD34+ cells [3]; IL-8 at doses of 50 ng/ml and 100 ng/ml, FIG. 5C): increased
- colony output of cultured MF CD34+ cells compared to WT CD34+ cells (MF CD34+ cells [3]; cultured with IL-8, FIG. 5A): enhanced colony output
- CFU-GM colony formation by MF samples with the highest expression of CXCR1/CXCR2 (MF CD34+ cells [3]; treatment with IL-8, FIG. 5D): increased
- hematopoietic colony formation by normal CD34+ cells (normal CD34+ cells): did not affect
- effect on decrease of VEGF mRNA expression caused by silencing of IL-8 (spleen stromal cells): reversed this effect
